One test concerns the target T1, TLR7 (Homo sapiens, UniProt Q9NYK1).
T1 construct: human HEK-Blue cells co-expressing a TLR7 or TLR8 gene
T1 sequence (Q9NYK1 27-1049): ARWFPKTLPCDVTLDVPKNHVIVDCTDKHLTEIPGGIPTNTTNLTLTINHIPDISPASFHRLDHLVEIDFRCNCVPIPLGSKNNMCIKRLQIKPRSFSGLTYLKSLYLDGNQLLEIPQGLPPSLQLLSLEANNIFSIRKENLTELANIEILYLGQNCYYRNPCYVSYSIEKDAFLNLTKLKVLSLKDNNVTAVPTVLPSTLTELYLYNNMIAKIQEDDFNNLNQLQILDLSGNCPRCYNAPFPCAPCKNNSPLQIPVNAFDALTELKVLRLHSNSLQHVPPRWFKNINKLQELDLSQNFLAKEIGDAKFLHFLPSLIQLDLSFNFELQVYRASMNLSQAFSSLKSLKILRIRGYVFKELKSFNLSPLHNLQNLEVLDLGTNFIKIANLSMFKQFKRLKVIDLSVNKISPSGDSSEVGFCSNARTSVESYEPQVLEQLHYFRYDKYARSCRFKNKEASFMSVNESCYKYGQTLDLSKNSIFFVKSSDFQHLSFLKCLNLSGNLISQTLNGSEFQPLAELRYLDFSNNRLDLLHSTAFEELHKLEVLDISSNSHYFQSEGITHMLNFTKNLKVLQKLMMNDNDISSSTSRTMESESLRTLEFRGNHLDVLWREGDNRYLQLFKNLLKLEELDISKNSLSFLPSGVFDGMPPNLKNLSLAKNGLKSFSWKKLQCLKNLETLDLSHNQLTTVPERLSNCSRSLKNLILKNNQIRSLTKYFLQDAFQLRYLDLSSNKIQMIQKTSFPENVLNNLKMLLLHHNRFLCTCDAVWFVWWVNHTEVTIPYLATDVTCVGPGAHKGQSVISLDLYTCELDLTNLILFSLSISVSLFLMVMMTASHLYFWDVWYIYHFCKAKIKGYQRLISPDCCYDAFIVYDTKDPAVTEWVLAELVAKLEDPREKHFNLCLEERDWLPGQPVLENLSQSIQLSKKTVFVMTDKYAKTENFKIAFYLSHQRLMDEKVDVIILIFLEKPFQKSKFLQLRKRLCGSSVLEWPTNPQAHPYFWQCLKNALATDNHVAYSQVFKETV
As to the kind of experiment: In vitro human TLR7 binding reporter assay (HEK-Blue, NF-kB/AP1-inducible SEAP). The note with it: read-out: TLR7 Agonist EC50. It counts as cell-based. The procedure, abridged: (§1)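 EC50s come from NF-kB/AP1-driven SEAP secretion in HEK-Blue cells expressing TLR7 or TLR8, measured with Quanti-Blue after an 18 h compound incubation. Maximal response is defined by a 50 μM reference standard.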
(In general: Reporter assays use an easily measured gene product as a stand-in for the process of interest.)

The next test concerns THP-1 cells. The test can be described thus: Measurement of IL-1β production, hTRF protocol (second alternative procedure), THP-1 cells. The note with it: Homo sapiens, THP-1, IL-1β production, read-out: NLRP3 hILIB EC50. It counts as cell-based, human. The procedure, abridged:
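Compounds, dilution series starting at a final 10 μM, were incubated 2 hours at 37° C with PMA-differentiated THP-1 cells (50 ng/ml overnight; 50,000 cells/well, 2% FBS RPMI). Released IL-1β quantified in supernatant by hTRF kit with 1:40 antibody dilution, 4° C overnight, 665/615 nm ratio.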

In a further test the target is T2, TLR8 (Homo sapiens, UniProt Q9NR97).
T2 construct: human HEK-Blue cells co-expressing a TLR7 or TLR8 gene
T2 sequence (Q9NR97 27-1041): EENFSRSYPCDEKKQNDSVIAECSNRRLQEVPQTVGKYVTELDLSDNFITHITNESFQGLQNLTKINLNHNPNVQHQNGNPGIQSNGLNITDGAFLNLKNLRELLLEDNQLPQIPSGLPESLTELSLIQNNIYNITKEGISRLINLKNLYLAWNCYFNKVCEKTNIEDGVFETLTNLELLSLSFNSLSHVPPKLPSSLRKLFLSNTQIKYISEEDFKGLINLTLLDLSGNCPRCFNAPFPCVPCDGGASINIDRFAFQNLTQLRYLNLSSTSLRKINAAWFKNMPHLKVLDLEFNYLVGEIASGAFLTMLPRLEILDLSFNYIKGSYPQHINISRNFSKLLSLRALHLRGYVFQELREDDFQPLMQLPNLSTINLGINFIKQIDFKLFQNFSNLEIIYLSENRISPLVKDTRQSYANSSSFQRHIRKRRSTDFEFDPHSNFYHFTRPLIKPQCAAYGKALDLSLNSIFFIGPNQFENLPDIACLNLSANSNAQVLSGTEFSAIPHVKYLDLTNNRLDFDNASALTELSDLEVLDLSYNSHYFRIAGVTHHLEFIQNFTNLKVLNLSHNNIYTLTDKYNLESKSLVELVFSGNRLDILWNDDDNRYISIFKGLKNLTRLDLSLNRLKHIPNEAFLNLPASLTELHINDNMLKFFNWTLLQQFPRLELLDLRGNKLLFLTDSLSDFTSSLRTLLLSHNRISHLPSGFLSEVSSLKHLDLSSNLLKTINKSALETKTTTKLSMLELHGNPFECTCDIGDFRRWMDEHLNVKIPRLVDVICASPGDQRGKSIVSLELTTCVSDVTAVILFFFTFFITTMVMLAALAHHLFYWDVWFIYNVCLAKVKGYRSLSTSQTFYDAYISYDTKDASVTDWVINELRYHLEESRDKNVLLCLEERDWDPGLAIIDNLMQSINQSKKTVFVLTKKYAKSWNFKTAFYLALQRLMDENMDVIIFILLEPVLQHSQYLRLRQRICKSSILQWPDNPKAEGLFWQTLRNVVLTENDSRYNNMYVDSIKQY
The test can be described thus: In vitro human TLR8 binding reporter assay (HEK-Blue, NF-kB/AP1-inducible SEAP). It counts as cell-based. To be noted: read-out: TLR8 Agonist EC50. Summed up:
as §1

Where two headings read alike, the source gives them in different places.

For the compound `Nc1nc2cc(-c3ccn[nH]3)ccc2c2nn(CCCNS(=O)(=O)C3CC3)cc12` [Example 589], the values for the EC50 at TLR7 (activity range), in the test with THP-1 cells (human cells) and on TLR8 (activity range) were > 100 µM, 2.62 µM and > 100 µM, respectively.
Regarding `Cc1nnc(Cn2cc3c(N)nc4cc(-c5cc[nH]n5)ccc4c3n2)o1` [Example 243], the EC50 – broadly, the midpoint of the concentration-response curve – on TLR7 (activity range class) was > 100 µM; in the test with THP-1 cells (human) it was 1.39 µM; at TLR8 (activity range class), > 100 µM.
Regarding `Nc1nc2cc(-c3cc[nH]n3)ccc2c2cn(Cc3cccnc3)nc12` [Example 167], the EC50 at TLR7 (activity range class) is > 100 µM; with THP-1 cells (human), 0.15 µM; on TLR8 (activity range class), > 100 µM.
`CC(C)(C)OCC(O)Cn1cc2c(N)nc3cc(-c4cc[nH]n4)ccc3c2n1` (stereo not drawn) [Example 375]: the EC50 on TLR7 (activity range class) was > 100 µM; in the test with THP-1 cells (human), 4.12 µM; on TLR8 (activity range class) it was > 100 µM.
`Cn1cnc2c(C(=O)NCCn3cc4c(n3)c(N)nc3cc(-c5cc[nH]n5)ccc34)cccc21` [Example 100]: the EC50 at TLR7 (activity range class) is > 100 µM; in the test with THP-1 cells (human) it was 1.67 µM; on TLR8 (activity range class), > 100 µM.
In the case of `COC[C@H](O)Cn1cc2c(N)nc3cc(-c4cc[nH]n4)ccc3c2n1` [Example 372], the results for the EC50 at TLR7 (activity range class), with THP-1 cells (human) and at TLR8 (activity range class) were > 100 µM, 0.88 µM and > 100 µM, respectively.
`Nc1nc2cc(-c3cc[nH]n3)ccc2c2nn(Cc3cc[nH]n3)cc12` [Example 357]: the EC50 was > 100 µM on TLR7 (activity range class), 0.19 µM in the test with THP-1 cells (human) and > 100 µM at TLR8 (activity range class).
Take `Nc1nc2cc(-n3cccn3)ccc2c2nn(CCCO)cc12` [Example 251, 3-(4-amino-7-(1H-pyrazol-1-yl)-2H-pyrazolo[4,3-c]quinolin-2-yl)propan-1-ol]: the EC50 at TLR7 (activity range class) is > 100 µM; with THP-1 cells (human), 0.62 µM; on TLR8 (activity range class), > 100 µM.
As to `Nc1nc2cc(-c3cc[nH]n3)ccc2c2cn(CCN3CCCC3=O)nc12` [Example 122, 1-{2-[4-amino-7-(1H-pyrazol-3-yl)-2H-pyrazolo[3,4-c]quinolin-2-yl]ethyl}pyrrolidin-2-one], the EC50 was > 100 µM at TLR7 (activity range class), 5.99 µM in the test with THP-1 cells (human) and > 100 µM at TLR8 (activity range class).
As for `CCN(CC)CCNC(=O)C(C)n1cc2c(N)nc3cc(-c4ccn[nH]4)ccc3c2n1` (stereo not drawn) [Example 573], the EC50 on TLR7 (activity range) is > 100 µM; in the test with THP-1 cells (human cells) it was 6.59 µM; on TLR8 (activity range), > 100 µM.
For `COc1ccc(CC(=O)NCCn2cc3c(n2)c(N)nc2cc(-c4cc[nH]n4)ccc23)cc1` [Example 32], the EC50 was 1 to 20 µM at TLR7 (activity range class), 14.7 µM with THP-1 cells (human) and > 100 µM on TLR8 (activity range class).
As for `COCCOCCn1cc2c(N)nc3cc(-c4cc[nH]n4)ccc3c2n1` [Example 310], the EC50 was > 100 µM on TLR7 (activity range class), 0.75 µM in the test on THP-1 cells (human) and > 100 µM at TLR8 (activity range class).
Consider `Nc1nc2cc(-c3cc[nH]n3)ccc2c2cn(CCCO)nc12` [Example 1, 3-[4-amino-7-(1H-pyrazol-3-yl)-2H-pyrazolo[3,4-c]quinolin-2-yl]propan-1-ol], for which the EC50 is > 100 µM on TLR7 (activity range class), 0.45 µM in the test with THP-1 cells (human) and > 100 µM on TLR8 (activity range class).
`Nc1nc2cc(-c3cc[nH]n3)ccc2c2cn(C[C@@H](O)CO)nc12` [Example 398]: the EC50 at TLR7 (activity range) was > 100 µM; in the test on THP-1 cells (human cells) it was 1.55 µM; at TLR8 (activity range) it was > 100 µM.
For `CNC(=O)CC(C)n1cc2c(N)nc3cc(-c4cc[nH]n4)ccc3c2n1` (stereo not drawn) [Example 621], the EC50 at TLR7 (activity range) is > 100 µM; in the test with THP-1 cells (human cells), 1.86 µM; on TLR8 (activity range) it was > 100 µM.
On to `CC(=O)N1CCN(CCn2cc3c(N)nc4cc(-c5ccn[nH]5)ccc4c3n2)CC1` [Example 276], for which the EC50 is > 100 µM on TLR7 (activity range class), 31.7 µM with THP-1 cells (human) and > 100 µM on TLR8 (activity range class).
As to `COCC(C)n1cc2c(N)nc3cc(-c4cc[nH]n4)ccc3c2n1` (stereo not drawn) [Example 336], the EC50 on TLR7 (activity range class) was > 100 µM; with THP-1 cells (human) it was 0.47 µM; on TLR8 (activity range class), > 100 µM.
Regarding `Nc1nc2cc(-c3ccn[nH]3)ccc2c2nn(CC3(C(=O)N4CCCC4)CC3)cc12` [Example 607], the figures for the EC50 on TLR7 (activity range), in the test with THP-1 cells (human cells) and at TLR8 (activity range) were > 100 µM, 13.4 µM and > 100 µM, respectively.
For `NCCCc1nc2c(N)nc3cc(-c4ccn[nH]4)ccc3c2s1` [Example 138], the EC50 on TLR7 (activity range class) is > 100 µM; in the test with THP-1 cells (human), 3.92 µM; on TLR8 (activity range class), > 100 µM.
For the compound `CCS(=O)(=O)NCCc1cc2c(N)nc3cc(-c4cc[nH]n4)ccc3c2[nH]1` [Example 482], the figures for the EC50 on TLR7 (activity range), with THP-1 cells (human cells) and at TLR8 (activity range) were > 100 µM, 2.21 µM and > 100 µM, respectively.
Take `Nc1nc2cc(-c3cc[nH]n3)ccc2c2cn(Cc3cscn3)nc12` [Example 168]: the EC50 on TLR7 (activity range class) was > 100 µM; in the test on THP-1 cells (human), 0.2 µM; on TLR8 (activity range class), 20 to 100 µM.
Take `Nc1nc2cc(-c3cc[nH]n3)ccc2c2cn(CCNC(=O)c3ncccc3F)nc12` [Example 53]: the concentration giving a half-maximal response (EC50) was > 100 µM on TLR7 (activity range class), 0.45 µM in the test on THP-1 cells (human) and > 100 µM at TLR8 (activity range class).
Consider `CC(Cn1cc2c(N)nc3cc(-c4ccn[nH]4)ccc3c2n1)NC(=O)c1ccc(F)cn1` (stereo not drawn) [Example 294], for which the EC50 is > 100 µM on TLR7 (activity range class), 0.43 µM in the test on THP-1 cells (human) and > 100 µM at TLR8 (activity range class).
Regarding `CCn1c(CNC(C)=O)cc2c(N)nc3cc(-n4cccn4)ccc3c21` [Example 448], the EC50 at TLR7 (activity range) is > 100 µM; in the test with THP-1 cells (human cells), 1.78 µM; at TLR8 (activity range), > 100 µM.
In the case of `Nc1nc2cc(-c3cc[nH]n3)ccc2c2nn(CCNC(=O)c3csc(Cl)n3)cc12` [Example 151, N-{2-[4-amino-7-(1H-pyrazol-3-yl)-2H-pyrazolo[4,3-c]quinolin-2-yl]ethyl}-2-chloro-1,3-thiazole-4-carboxamide], the 50% effective concentration (EC50) on TLR7 (activity range class) was > 100 µM; in the test with THP-1 cells (human), 0.06 µM; on TLR8 (activity range class), > 100 µM.
In the case of `CCN(CCn1cc2c(N)nc3cc(-c4ccn[nH]4)ccc3c2n1)C(C)=O` [Example 272], the EC50 at TLR7 (activity range class) is > 100 µM; in the test with THP-1 cells (human), 5.13 µM; at TLR8 (activity range class), > 100 µM.
Regarding `Nc1nc2cc(-c3cc[nH]n3)ccc2c2nn(CCF)cc12` [Example 321], the EC50 at TLR7 (activity range class) was > 100 µM; in the test on THP-1 cells (human), 0.19 µM; at TLR8 (activity range class) it was > 100 µM.
